Assay results: ChEMBL document CHEMBL5584358, “Fungal Coculture of Herpotrichia sp. and Trametes versicolor Induces Production of Diverse Metabolites with Anti-Parkinson's Neuroprotective Activity” (J Nat Prod, 2024)

Columns and labels:
PC-12 [1] = experiment: Cytotoxicity against rat PC12 cells assessed as effect on cell viability at 20 uM measured after 24 hrs by CCK-8 assay; format: toxicity, cell-based; settings: pc-12, 24 h
PC-12 [2] = experiment: Neuroprotective activity against MPP+-induced rat PC12 cell death assessed as increase in cell viability preincubated for 1 hr followed by MPP+ addition and measured after 24 hrs by CCK-8 assay; format: functional, cell-based; settings: dose 1-20 µM, time 25.0 hrs
PC-12 [3] = experiment: Neuroprotective activity against MPP+-induced rat PC12 cell death assessed as upregulation of Rab5al1 gene expression at 1 to 10 uM preincubated for 1 hr followed by MPP+ addition and measured after 24 hrs by RNA sequencing analysis relative to control; format: functional; settings: dose 1-10 µM; time 25 hrs
PC-12 [4] = experiment: Neuroprotective activity against MPP+-induced rat PC12 cell death assessed as upregulation of Gpt gene expression at 1 to 10 uM preincubated for 1 hr followed by MPP+ addition and measured after 24 hrs by RNA sequencing analysis relative to control; format: functional; settings: dose 1-10 µM; time 25 hrs
PC-12 [5] = experiment: Neuroprotective activity against MPP+-induced rat PC12 cell death assessed as upregulation of Lck gene expression at 1 to 10 uM preincubated for 1 hr followed by MPP+ addition and measured after 24 hrs by RNA sequencing analysis relative to control; format: functional; settings: dose 1-10 µM; time 25 hrs
PC-12 [6] = experiment: Neuroprotective activity against MPP+-induced rat PC12 cell death assessed as upregulation of Ppial4d gene expression at 1 to 10 uM preincubated for 1 hr followed by MPP+ addition and measured after 24 hrs by RNA sequencing analysis relative to control; format: functional; settings: dose 1-10 µM; time 25 hrs
PC-12 [7] = experiment: Neuroprotective activity against MPP+-induced rat PC12 cell death assessed as upregulation of Des gene expression at 1 to 10 uM preincubated for 1 hr followed by MPP+ addition and measured after 24 hrs by RNA sequencing analysis relative to control; format: functional; settings: dose 1-10 µM; time 25 hrs
PC-12 [8] = experiment: Neuroprotective activity against MPP+-induced rat PC12 cell death assessed as upregulation of Rora gene expression at 1 to 10 uM preincubated for 1 hr followed by MPP+ addition and measured after 24 hrs by RNA sequencing analysis relative to control; format: functional; settings: dose 1-10 µM; time 25 hrs
PC-12 [9] = experiment: Neuroprotective activity against MPP+-induced rat PC12 cell death assessed as upregulation of Plau gene expression at 1 to 10 uM preincubated for 1 hr followed by MPP+ addition and measured after 24 hrs by RNA sequencing analysis relative to control; format: functional; settings: dose 1-10 µM; time 25 hrs
PC-12 [10] = experiment: Neuroprotective activity against MPP+-induced rat PC12 cell death assessed as upregulation of Stat6 gene expression at 1 to 10 uM preincubated for 1 hr followed by MPP+ addition and measured after 24 hrs by RNA sequencing analysis relative to control; format: functional; settings: dose 1-10 µM; time 25 hrs
PC-12 [11] = experiment: Neuroprotective activity against MPP+-induced rat PC12 cell death assessed as upregulation of Dars2 gene expression at 1 to 10 uM preincubated for 1 hr followed by MPP+ addition and measured after 24 hrs by RNA sequencing analysis relative to control; format: functional; settings: dose 1-10 µM; time 25 hrs
PC-12 [12] = experiment: Neuroprotective activity against MPP+-induced rat PC12 cell death assessed as upregulation of Insr gene expression at 1 to 10 uM preincubated for 1 hr followed by MPP+ addition and measured after 24 hrs by RNA sequencing analysis relative to control; format: functional; settings: dose 1-10 µM; time 25 hrs
PC-12 [13] = experiment: Neuroprotective activity against MPP+-induced rat PC12 cell death assessed as upregulation of Prkce gene expression at 1 to 10 uM preincubated for 1 hr followed by MPP+ addition and measured after 24 hrs by RNA sequencing analysis relative to control; format: functional; settings: dose 1-10 µM; time 25 hrs
PC-12 [14] = experiment: Neuroprotective activity against MPP+-induced rat PC12 cell death assessed as downregulation of Cdk6 gene expression at 1 to 10 uM preincubated for 1 hr followed by MPP+ addition and measured after 24 hrs by RNA sequencing analysis relative to control; format: functional; settings: dose 1-10 µM; time 25 hrs
PC-12 [15] = experiment: Neuroprotective activity against MPP+-induced rat PC12 cell death assessed as downregulation of Xiap gene expression at 1 to 10 uM preincubated for 1 hr followed by MPP+ addition and measured after 24 hrs by RNA sequencing analysis relative to control; format: functional; settings: dose 1-10 µM; time 25 hrs
PC-12 [16] = experiment: Neuroprotective activity against MPP+-induced rat PC12 cell death assessed as downregulation of Ugt1a3 gene expression at 1 to 10 uM preincubated for 1 hr followed by MPP+ addition and measured after 24 hrs by RNA sequencing analysis relative to control; format: functional; settings: dose 1-10 µM; time 25 hrs
PC-12 [17] = experiment: Neuroprotective activity against MPP+-induced rat PC12 cell death assessed as downregulation of Ren gene expression at 1 to 10 uM preincubated for 1 hr followed by MPP+ addition and measured after 24 hrs by RNA sequencing analysis relative to control; format: functional; settings: dose 1-10 µM; time 25 hrs
PC-12 [18] = experiment: Neuroprotective activity against MPP+-induced rat PC12 cell death assessed as downregulation of Sesn2 gene expression at 1 to 10 uM preincubated for 1 hr followed by MPP+ addition and measured after 24 hrs by RNA sequencing analysis relative to control; format: functional; settings: dose 1-10 µM; time 25 hrs
PC-12 [19] = experiment: Neuroprotective activity against MPP+-induced rat PC12 cell death assessed as downregulation of Nr3c2 gene expression at 1 to 10 uM preincubated for 1 hr followed by MPP+ addition and measured after 24 hrs by RNA sequencing analysis relative to control; format: functional; settings: dose 1-10 µM; time 25 hrs
PC-12 [20] = experiment: Neuroprotective activity against MPP+-induced rat PC12 cell death assessed as downregulation of Cyp2b1 gene expression at 1 to 10 uM preincubated for 1 hr followed by MPP+ addition and measured after 24 hrs by RNA sequencing analysis relative to control; format: functional; settings: dose 1-10 µM; time 25 hrs
PC-12 [21] = experiment: Neuroprotective activity against MPP+-induced rat PC12 cell death assessed as downregulation of Cflar gene expression at 1 to 10 uM preincubated for 1 hr followed by MPP+ addition and measured after 24 hrs by RNA sequencing analysis relative to control; format: functional; settings: dose 1-10 µM; time 25 hrs
PC-12 [22] = experiment: Neuroprotective activity against MPP+-induced rat PC12 cell death assessed as downregulation of Vnn1 gene expression at 1 to 10 uM preincubated for 1 hr followed by MPP+ addition and measured after 24 hrs by RNA sequencing analysis relative to control; format: functional; settings: dose 1-10 µM; time 25 hrs
PC-12 [23] = experiment: Neuroprotective activity against MPP+-induced rat PC12 cell death assessed as downregulation of Prorp gene expression at 1 to 10 uM preincubated for 1 hr followed by MPP+ addition and measured after 24 hrs by RNA sequencing analysis relative to control; format: functional; settings: dose 1-10 µM; time 25 hrs
PC-12 [24] = experiment: Neuroprotective activity against MPP+-induced rat PC12 cell death assessed as downregulation of Anxa1 gene expression at 1 to 10 uM preincubated for 1 hr followed by MPP+ addition and measured after 24 hrs by RNA sequencing analysis relative to control; format: functional; settings: dose 1-10 µM; time 25 hrs
PC-12 [25] = experiment: Neuroprotective activity against MPP+-induced rat PC12 cell death assessed as downregulation of Ifitm3 gene expression at 1 to 10 uM preincubated for 1 hr followed by MPP+ addition and measured after 24 hrs by RNA sequencing analysis relative to control; format: functional; settings: dose 1-10 µM; time 25 hrs
PC-12 [26] = experiment: Neuroprotective activity against MPP+-induced rat PC12 cell death assessed as downregulation of Tnfaip8L2 gene expression at 1 to 10 uM preincubated for 1 hr followed by MPP+ addition and measured after 24 hrs by RNA sequencing analysis relative to control; format: functional; settings: dose 1-10 µM; time 25 hrs

With C=C1CC[C@H]2C(C)(C)[C@@H](O)C[C@@H](O)[C@]2(C)[C@H]1CO the Activity (PC-12 [1]) was “Non-Toxic”, the Activity (PC-12 [2]) was “Dose-Dependent Effect” and the log2FC (PC-12 [3]) was over 0.4. It also gave a log2FC (PC-12 [4]) of over 0.4, a log2FC (PC-12 [5]) of over 0.4 and a log2FC (PC-12 [6]) of over 0.4. For the same molecule, the log2FC (PC-12 [7]) was over 0.4, the log2FC (PC-12 [8]) was over 0.4 and the log2FC (PC-12 [9]) was over 0.4. For the same molecule, the log2FC (PC-12 [10]) was over 0.4, the log2FC (PC-12 [11]) was over 0.4 and the log2FC (PC-12 [12]) was over 0.4. The log2FC (PC-12 [13]) was over 0.4, the log2FC (PC-12 [14]) was over 0.4 and the log2FC (PC-12 [15]) was over 0.4. It also gave a log2FC (PC-12 [16]) of over 0.4, a log2FC (PC-12 [17]) of over 0.4 and a log2FC (PC-12 [18]) of over 0.4. The log2FC (PC-12 [19]) was over 0.4, the log2FC (PC-12 [20]) was over 0.4 and the log2FC (PC-12 [21]) was over 0.4. The log2FC (PC-12 [22]) was over 0.4, the log2FC (PC-12 [23]) was over 0.4 and the log2FC (PC-12 [24]) was over 0.4. The log2FC (PC-12 [25]) was over 0.4 and the log2FC (PC-12 [26]) was over 0.4.
